Measured values: EP0778733B1, “A BASIC PROTEIN COMPOSITION FOR KILLING OR INHIBITING MICROBIAL CELLS” (NOVO NORDISK A/S, priority 1994, dated 1996)

What was measured:
Assay type in all cases: cell-based
Pseudomonas fluorescens [1] = assay: Synergy growth inhibition experiments, impedimetric, factorial design; conditions: each alone: protamine 250 µg/ml, polylysine 500 µg/ml, lactoperoxidase 2 U/ml, glucose oxidase 2 U/ml
Experimental: Impedimetric measurements carried out as described in example 1 have shown an synergistic effect between basic peptides as protamine, polyarginine or polylysine and lysozyme and/or glucose oxidase and/or the lactoperoxidase enzyme system depending on pH and NaCl concentration.
Growth inhibition experiments were conducted, wherein synergistic and additional effects were determined by mixing compounds in low concentrations not having any activity on their own and using a factoral design. The effects were measured as growth inhibition or a 100% bacteriocidal effect with a total kill of the inoculum.

Pseudomonas aeruginosa = assay: Impedimetric MIC / detection time, growing cells in TSB (Bactometer); parameters: key: n.e.: not effective; conditions: Table 4, strain printed as Pseudomonas aeroginosa; determined as in Example 1 (inhibition of at least 100 hours); n.e. = not effective
Experimental: (§1) Volumes (1.0 ml) of TSB medium were added to Bactometer® wells. Protamine solutions (0.1 ml) were transferred to the wells which were sealed, connected to the Bactometer B123-2 (bioMérieux UK ltd., UK) and incubated at 25°C until a significant detectable increase in the electrical conductivity of the medium was registered and the detection time (DT) was recorded (maximum 100 h). Detection usually occurs when the cell concentration reaches 10^6-10^7 cfu/ml. For the Gram-positive strains the capacitance signal was monitored, while change in conductance was used for Gram-negative strains.
(§2) was measured in the Bactometer modules. The wells (containing 1 ml TSB and 0.1 ml protamine solution) were inoculated with 0.1 ml from a 10^-4 dilution of an inoculum culture, giving a final cell concentration in the well of approximately 10^3 cfu/ml. The concentration of protamine varied from 1 to 4000 µg/ml depending on the sensitivity of the strain investigated.
(§3) Minimum Inhibition Concentration (MIC) was determined as the lowest concentration of protamine resulting in absence of a DT.
(§4) When no DT was measured, the lethal/inhibitory effect on the cells were tested by plating the total well volume.
(§5) The minimum inhibition concentration (MIC) of various-substances was determined as described in Example 1. […]

Pseudomonas fluorescens [2] = assay: as above; parameters: key: n.e.: not effective; conditions: Table 4, determined as in Example 1 (inhibition of at least 100 hours); n.e. = not effective
Experimental: as §1, §2, §3, §4, §5

Escherichia coli 0157:H7 = assay: as above; conditions: Table 4, strain printed as Escherichia coli; determined as in Example 1 (inhibition of at least 100 hours); n.e. = not effective
Experimental: as §1, §2, §3, §4
(§6) The minimum inhibition concentration (MIC) of various-substances was determined as described in Example 1.
(§7) The following substances were tested: protamine (A), protamine sulphate (B), a peroxidase enzyme system (i.e. lactoperoxidase/glucoseoxidase (C)), subtilisin A (D), polyarginine (E) having an average molecular weight of about 6 kD and lysozyme (F) (150 000 units/mg; Johansen, C. et al., 1994).

Staphylococcus aureus = assay: as above; conditions: Table 4, determined as in Example 1 (inhibition of at least 100 hours); n.e. = not effective
Experimental: as §1, §2, §3, §4, §6, §7

Vibrio paraheamolyticus = assay: as above; conditions: Table 4, determined as in Example 1 (inhibition of at least 100 hours); n.e. = not effective
Experimental: as §1, §2, §3, §4, §6, §7

Listeria monocytogenes = assay: as above; conditions: Table 4, determined as in Example 1 (inhibition of at least 100 hours); n.e. = not effective
Experimental: as §1
(§8) was measured in the Bactometer modules. […]
as §3, §4, §5
(§9) Further, the influence of cell concentration on the anti-bacterial effect of protamine was tested using the materials and methods described in Example 1, i.e.the correlation between cell concentration and protamine concentration has been measured by the impedimetric assay.

Shewanella putrefaciens = assay: as above; conditions: Table 4, determined as in Example 1 (inhibition of at least 100 hours); n.e. = not effective
Experimental: as §1, §8, §3, §4, §5, §9

all the tested strains = assay: Comparative impedimetric MIC, all tested strains of Table 4; conditions: summary of Table 4
Experimental: as §6, §7

| Substance | growth inhibition, compound alone (Pseudomonas fluorescens [1]) | Minimum Inhibitory Concentration (Pseudomonas aeruginosa) | Minimum Inhibitory Concentration (Pseudomonas fluorescens [2]) | Minimum Inhibitory Concentration (Escherichia coli 0157:H7) [µg/mL] | Minimum Inhibitory Concentration (Staphylococcus aureus) [µg/mL] | Minimum Inhibitory Concentration (Vibrio paraheamolyticus) [µg/mL] | Minimum Inhibitory Concentration (Listeria monocytogenes) [µg/mL] | Minimum Inhibitory Concentration (Shewanella putrefaciens) [µg/mL] | effectiveness for inhibiting the tested strains (all the tested strains) |
| --- | --- | --- | --- | --- | --- | --- | --- | --- | --- |
| polylysine | not inhibited | – | – | – | – | – | – | – | – |
| polyarginine | – | n.e. | n.e. | 1500 | 1500 | 2000 | 2000 | 1500 | effective for inhibiting all strains but Pseudomonas spp. |
